≈ marks a conversion by molar mass, not a printed value. Read-outs that look alike come from different tables or passages of the source. Where a SMILES comes first, the peptide text is derived from it. Where no end group is shown, it is not given here.
Key:
[1] = system: A. baumannii B28-16; assay type: cell-based, Acinetobacter baumannii
Summary of the method: (§1)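 Peptides twofold serially diluted against exponential-phase resistant clinical isolates at ~10^5 CFU/mL in MHB (also diluted MHB, TSB or LB in one protocol), CLSI-based broth microdilution. Incubated overnight at 37° C., OD 600 nm read; MIC taken as lowest concentration without growth, reported as ranges.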

[2] = system: E. coli E416-17; assay type: cell-based, Escherichia coli
Method: (§2) Peptide activity against bacteria were tested using the CLSI standard procedure with minor modifications (Clinical and Laboratory Standards Institute (2018) Performance standards for antimicrobial susceptibility testing, 9th ed.; Mishra, et al. (2019) Proc. Natl. Acad. Sci., 116(27):13517-13522). In brief, a peptide concentration gradient with twofold dilution was made in the 96-well polystyrene microplate at 10 μL per well. Bacteria were grown to the exponential phase (i.e., optical density at 600 nm≈0.5), diluted to ˜10^5 CFU/mL in MHB, and partitioned into the 96-well microplate at 90 μL per well. The microplates were incubated at 37° C. overnight and read on a ChroMate® 4300 Microplate Reader at 600 nm (GMI, Ramsey, MN). The peptide concentration in the wells without bacterial growth is the minimal inhibitory concentration (MIC). As the convention, MIC values were represented as ranges.

[3] = system: K. pneumoniae E406-17; assay type: cell-based, Klebsiella pneumoniae
Method: The following resistant bacterial clinical strains were used in this study: S. aureus USA300 LAC, S. epidermidis 1457, E. coli E423-17, P. aeruginosa E411-17, K. pneumoniae E406-17, and A. baumannii B28-16. While the S. aureus USA300 strain is methicillin-resistant, most of the Gram-negative bacteria contain extended-spectrum beta-lactamase and are resistant to beta-lactam antibiotics. Peptide activity against bacteria was tested using an established lab protocol (Mishra, et al. (2017) Acta Biomater., 49:316-328). In brief, a peptide concentration gradient with twofold dilution was made in the 96-well polystyrene microplate at 10 μL per well. Bacteria were grown to the exponential phase (i.e., optical density at 600 nm≈0.5), diluted to ˜10^5 CFU/mL in different percentages of MHB, TSB, or LB, and partitioned into the 96-well microplate at 90 μL per well. […] They were diluted with autoclaved distilled water to obtain different percentages. The microplates were incubated at 37° C. overnight and read on a ChroMate™ 4300 microplate reader at 600 nm (GMI, Ramsey, MN). The peptide concentration in the wells without bacterial growth is the MIC. As is the convention, MIC values were represented as ranges.
as §2

[4] = system: S. epidermidis 1457; assay: microbe, parasite or virus in culture; assay type: cell-based, Staphylococcus epidermidis
Summary of the method: as §1

[5] = system: S. aureus USA300 LAC; assay: microbe, parasite or virus in culture; assay type: cell-based, Staphylococcus aureus; conditions: for MIC: read-out: Antimicrobial activity (MIC)
Summary of the method: (§3)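 Broth microdilution with twofold peptide dilutions, using exponential-phase bacteria at about 10^5 CFU/mL in MHB, incubated overnight at 37 °C and read at OD600. MIC, reported as a range, is the peptide concentration with no growth. Some tests used diluted MHB/TSB/LB, adjusted pH, or added NaCl or human serum.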

[6] = system: P. aeruginosa E411-17; assay: microbe, parasite or virus in culture; assay type: cell-based, Pseudomonas aeruginosa; conditions: for MIC: read-out: Antimicrobial activity (MIC)
Summary of the method: as §3

[7] = system: human red blood cells; assay: Hemolytic assay; assay type: cell-based
Method: The hemolytic effects of peptides were evaluated using a method with minor modifications (Lakshmaiah Narayana, et al. (2021) ACS Infect. Dis., 7:1795-1808). Human red blood cells (hRBCs, UNMC Blood Bank) were washed (3×) with blood bank saline (isotonic solution 0.90% w/v, Fisher). Cells were diluted to 2% using the saline solution, and aliquots of 90 μL were added to a 96-well polystyrene microplate containing 10 μL of serially diluted peptide solutions. After incubation at 37° C. for 1 hour, plates were centrifuged at 500 g for 5 minutes. Aliquots of the supernatant were transferred to a 96-well microplate. The amount of hemoglobin released was measured at 545 nm by using a ChroMate™ microplate reader. […] HC50 is defined as the concentration of the peptide that caused 50% lysis.
The hemolytic effects of peptides were evaluated (Narayana, et al. (2020) Proc. Natl. Acad. Sci., 117(32):19446-9454). In brief, human red blood cells (UNMC Blood Bank) were washed (3×) and diluted to 2% using the saline solution. Aliquots of 90 μL were mixed with 10 μL of serially diluted peptide solutions. After incubation at 37° C. for 1 hour, plates were centrifuged at 500 g for 5 minutes and aliquots of the supernatant were transferred to a new 96-well microplate to measure the amount of hemoglobin released at 545 nm (relative to 1% Triton® X-100) using a ChroMate® Microplate Reader.

[8] = system: trypsin; conditions: peptide:protease 40:1, 37° C., 1 hour
Method: A solution of peptide/protease (40:1 molar ratio) was made in phosphate-buffered saline (PBS; pH 7.1, Gibco, NY) and incubated at 37° C. for 1 hour. As controls, peptides without proteases were also incubated in the same manner. Then, aliquots of 10 μL were transferred to a 96-well polystyrene microplate and mixed with the exponential-phase MRSA USA300 culture as performed in the antibacterial activity assays above.

[9] = target: T1, chymotrypsin (Bos taurus, UniProt P00766); assay type: in vitro ADME, mammalian
T1 construct: purchased Thermo Fisher Scientific

[10] = target: T2, pepsin (Sus scrofa, UniProt P00791); assay type: in vitro ADME, mammalian
T2 construct: purchased Thermo Fisher Scientific
T2 sequence (P00791 60-385): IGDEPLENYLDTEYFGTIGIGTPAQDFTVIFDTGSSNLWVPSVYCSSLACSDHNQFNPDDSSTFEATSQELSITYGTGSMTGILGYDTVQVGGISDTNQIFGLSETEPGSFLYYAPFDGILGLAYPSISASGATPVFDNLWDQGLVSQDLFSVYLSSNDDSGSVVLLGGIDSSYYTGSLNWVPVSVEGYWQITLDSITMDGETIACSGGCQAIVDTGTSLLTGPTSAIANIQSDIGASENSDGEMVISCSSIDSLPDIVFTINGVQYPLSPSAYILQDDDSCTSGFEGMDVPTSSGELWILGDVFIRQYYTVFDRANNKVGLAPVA

[11] = system: E. coli E423-17; assay type: cell-based, Escherichia coli
[12] = system: P. aeruginosa E411-17; assay: Killing kinetics; assay type: cell-based, Pseudomonas aeruginosa; conditions: 4×MIC
Method: For bacterial killing kinetics study, MRSA USA300 and P. aeruginosa E411-17 was grown to the exponential phase (OD600˜0.3) in MHB. The culture was diluted to OD600 0.001 (˜10^5 CFU/mL). One milliliter of bacterial suspension was then mixed with the peptide, colistin or daptomycin at 4×MIC and incubated at 37° C. After 15, 30, 60, 90, and 120 minutes incubation, 50 μL was taken and serially diluted with 1×PBS. Then, 50 μL of the diluted suspension was plated on Mannitol Salt Agar (MRSA USA300) or Cetrimide Agar (P. aeruginosa E411-17) plates (NEOGEN, MI). The plates were incubated overnight at 37° C. for bacterial CFU count the next day.

[13] = system: E. coli E423-17; assay: Membrane permeabilization (propidium iodide); assay type: cell-based, Escherichia coli; conditions: Example 1, 1×MIC
[14] = system: E. coli E423-17; assay type: cell-based, Escherichia coli; conditions: DMEM

| Molecule | Minimal inhibitory concentration (MIC) A. baumannii B28-16 [1] [µM] | Minimal inhibitory concentration (MIC) E. coli E416-17 [2] [µM] | Minimal inhibitory concentration (MIC) K. pneumoniae E406-17 [3] [µM] | Minimal inhibitory concentration (MIC) S. epidermidis 1457 [4] [µM] | Minimal inhibitory concentration (MIC) S. aureus USA300 [5] [µM] | Minimal inhibitory concentration (MIC) P. aeruginosa E411-17 [6] [µM] | HC10-based therapeutic index (HC10/MIC) [7] | Hemolysis (HC10), 10% hemolytic concentration [7] [µM] | Hemolysis (HC50), 50% hemolytic concentration [7] [µM] | also measured |
| --- | --- | --- | --- | --- | --- | --- | --- | --- | --- | --- |
| N=C(N)NCCC[C@H](NC(=O)[C@@H](N)CCCCN)C(=O)N[C@@H](Cc1c[nH]c2ccccc12)C(=O)N[C@@H](Cc1ccc(-c2ccccc2)cc1)C(=O)N[C@@H](CCC(N)=O)C(=O)N[C@@H](Cc1c[nH]c2ccccc12)C(=O)N[C@@H](Cc1ccc(-c2ccccc2)cc1)C(=O)N[C@@H](CCCCN)C(N)=O [Bip-KR-8+] (HELM PEPTIDE1{K.R.W.[O=C([C@H](Cc1ccc(-c2ccccc2)cc1)N[*:1])[*:2]].Q.W.[O=C([C@H](Cc1ccc(-c2ccccc2)cc1)N[*:1])[*:2]].K.[am]}$$$$V2.0) | 32 (≈ 44.1 µg/mL) | 16 (≈ 22 µg/mL) | >32 | 4 (≈ 5.51 µg/mL) | 4 (≈ 5.51 µg/mL) | 16 to 32 | ~1 | 15 | > 200 |  |
| CC(C)C[C@H](N)C(=O)N[C@@H](Cc1c[nH]c2ccccc12)C(=O)NCC(=O)N[C@@H](CCCNC(=N)N)C(=O)N[C@@H](Cc1ccccc1)C(=O)N[C@@H](Cc1ccccc1)C(=O)N[C@@H](CCCNC(=N)N)C(=O)N[C@@H](CCCCN)C(=O)N[C@@H](Cc1ccc(-c2ccccc2)cc1)C(=O)N[C@@H](CCCCN)C(N)=O [Bip-LL-10+] (HELM PEPTIDE1{L.W.G.R.F.F.R.K.[O=C([C@H](Cc1ccc(-c2ccccc2)cc1)N[*:1])[*:2]].K.[am]}$$$$V2.0) | 8 (≈ 11.7 µg/mL) | 4 (≈ 5.84 µg/mL) | >32 | 4 (≈ 5.84 µg/mL) | 2 to 4 | 4 (≈ 5.84 µg/mL) | 25 | 100 | > 200 |  |
| CC(C)C[C@H](NC(=O)[C@H](Cc1ccccc1)NC(=O)[C@H](CCCNC(=N)N)NC(=O)[C@H](CCCCN)NC(=O)[C@H](Cc1ccc(-c2ccccc2)cc1)NC(=O)[C@@H](N)CCCNC(=N)N)C(=O)N[C@@H](CCCNC(=N)N)C(=O)N[C@@H](CC(N)=O)C(=O)N[C@@H](Cc1ccc(-c2ccccc2)cc1)C(=O)N[C@H](C(N)=O)C(C)C [Bip-RIK-10+] (HELM PEPTIDE1{R.[O=C([C@H](Cc1ccc(-c2ccccc2)cc1)N[*:1])[*:2]].K.R.F.L.R.N.[O=C([C@H](Cc1ccc(-c2ccccc2)cc1)N[*:1])[*:2]].V.[am]}$$$$V2.0) | 2 to 4 | 2 (≈ 3.07 µg/mL) | 2 to 4 | 2 (≈ 3.07 µg/mL) | 1 (≈ 1.53 µg/mL) | 2 (≈ 3.07 µg/mL) | <4 |  | ~30 | Hemolysis (HC10), 10% hemolytic concentration ([7]; red cells of human): < 8 µM |
| N=C(N)NCCC[C@@H](N)C(=O)N[C@H](CCCNC(=N)N)C(=O)N[C@H](Cc1c[nH]c2ccccc12)C(=O)N[C@H](Cc1c[nH]c2ccccc12)C(=O)N[C@H](CCCNC(=N)N)C(=O)N[C@H](Cc1c[nH]c2ccccc12)C(=O)N[C@H](Cc1c[nH]c2ccccc12)C(=O)N[C@H](CCCNC(=N)N)C(N)=O [LL-37mini (D-form)] (HELM PEPTIDE1{[dR].[dR].[dW].[dW].[dR].[dW].[dW].[dR].[am]}$$$$V2.0) |  |  |  |  |  |  |  |  |  | activity after protease incubation [8]: remained active; activity after protease incubation [9]: remained active; activity after protease incubation [10]: retained antibacterial activity |
| Colistin [reference compound] |  |  |  |  |  |  |  |  |  | Antimicrobial activity (MIC) A. baumannii B28-16 ([1]; MHB, Table 8): 2 µM; Antimicrobial activity (MIC) E. coli E423-17 ([11]; MHB, Table 8): 1 to 2 µM; MIC ([5]; Human serum 5%): >8 µM; MIC ([5]; Human serum 10%): >8 µM; MIC ([5]; NaCl (150 mM)): >8 µM; MIC ([5]; pH 6.21): >8 µM; MIC ([5]; pH 7.22): >8 µM; MIC ([5]; pH 8.13): >8 µM; Antimicrobial activity (MIC) ([6]; Human serum 5%): 1 to 2 µM; MIC ([6]; Human serum 10%): 2 µM; Antimicrobial activity (MIC) P. aeruginosa E411-17 ([6]; MHB, Table 8): 1 to 2 µM; MIC ([6]; NaCl (150 mM)): 2 µM; MIC ([6]; pH 6.21): 2 µM; Antimicrobial activity (MIC) ([6]; pH 7.22): 1 to 2 µM; Antimicrobial activity (MIC) ([6]; pH 8.13): 1 to 2 µM; hemolysis ([7]; at 400 μM): did not lyse human red blood cells even at 400 μM; time to kill [12]: 30 min; membrane permeabilization [13]: powerful membrane permeator |
| RIKDFLRNLV-NH2 (C-terminus assumed) [RIK-10] |  |  |  |  |  |  |  |  |  | Antimicrobial activity (MIC) ([11]; E423-17): 32 to 64 µM; Antimicrobial activity (MIC) ([11]; MHB 100%): 16 µM; Antimicrobial activity (MIC) [14]: 8 µM; Antimicrobial activity (MIC) ([5]; MHB 12.5%): active |
